Measured values as given in the supplement of paper PMC10307832.

Assays:
Assay in all cases: relative viability (nuclei count vs DMSO), 5 days (fraction); higher = more cells survive
[1] = compound: COC1=CC=C(C=C1)CN2C=CC3=C2C=C(C=C3)C(=O)NO + Cc1nc(Nc2ncc(C(=O)Nc3c(C)cccc3Cl)s2)cc(N2CCN(CCO)CC2)n1 [Dasatinib] (partner 0.075 µM)
Summary of the method: (§1)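 Medians of duplicate plates are given as relative viability. That measure is the nuclei count in treated wells divided by the count in vehicle wells. Counts were taken on 4× images of lung cancer cell lines in 1536-well plates, 5 days after pin-tool dosing the day after seeding with one drug alone or a fixed anchor-drug dose plus five library-drug doses (not always all listed) in √10 steps.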

[2] = compound: COC1=CC=C(C=C1)CN2C=CC3=C2C=C(C=C3)C(=O)NO + CC(C)C[C@H](NC(=O)[C@H](Cc1ccccc1)NC(=O)c1cnccn1)B(O)O [Bortezomib] (partner 0.002 µM)
Summary of the method: as §1

Veliparib + Foretinib = compound: C[C@]1(c2nc3c(C(N)=O)cccc3[nH]2)CCCN1 [Veliparib] + COc1cc2c(Oc3ccc(NC(=O)C4(C(=O)Nc5ccc(F)cc5)CC4)cc3F)ccnc2cc1OCCCN1CCOCC1 [Foretinib] (partner 0.25 µM)
Summary of the method: as §1

Veliparib + Trametinib = compound: C[C@]1(c2nc3c(C(N)=O)cccc3[nH]2)CCCN1 [Veliparib] + CC(=O)Nc1cccc(-n2c(=O)n(C3CC3)c(=O)c3c(Nc4ccc(I)cc4F)n(C)c(=O)c(C)c32)c1 [Trametinib] (partner 0.02 µM)
Summary of the method: as §1

HOP-62
relative viability ([1]; first compound 0.08 µM): 0.601
relative viability ([1]; first compound 0.253 µM): 0.72
relative viability ([1]; first compound 0.8 µM): 0.658
relative viability ([1]; first compound 2.53 µM): 0.66
relative viability ([1]; first compound 8 µM): 0.529
relative viability ([2]; first compound 0.08 µM): 0.893
relative viability ([2]; first compound 0.253 µM): 0.841
relative viability ([2]; first compound 0.8 µM): 0.912
relative viability ([2]; first compound 2.53 µM): 0.853
relative viability ([2]; first compound 8 µM): 0.946
relative viability (Veliparib + Foretinib; first compound 0.02 µM): 1.17
relative viability (Veliparib + Foretinib; first compound 0.06325 µM): 0.983
relative viability (Veliparib + Foretinib; first compound 0.2 µM): 0.99
relative viability (Veliparib + Foretinib; first compound 0.6325 µM): 1.13
relative viability (Veliparib + Foretinib; first compound 2 µM): 1.22
relative viability (Veliparib + Trametinib; first compound 0.02 µM): 0.375
relative viability (Veliparib + Trametinib; first compound 0.06325 µM): 0.322
relative viability (Veliparib + Trametinib; first compound 0.2 µM): 0.351
relative viability (Veliparib + Trametinib; first compound 0.6325 µM): 0.39
relative viability (Veliparib + Trametinib; first compound 2 µM): 0.407

NCI-H1915
relative viability ([1]; first compound 0.08 µM): 0.326
relative viability ([1]; first compound 0.253 µM): 0.333
relative viability ([1]; first compound 0.8 µM): 0.314
relative viability ([1]; first compound 2.53 µM): 0.303
relative viability ([1]; first compound 8 µM): 0.27
relative viability ([2]; first compound 0.08 µM): 0.769
relative viability ([2]; first compound 0.253 µM): 0.921
relative viability ([2]; first compound 0.8 µM): 0.989
relative viability ([2]; first compound 2.53 µM): 0.924
relative viability ([2]; first compound 8 µM): 1.02
relative viability (Veliparib + Foretinib; first compound 0.02 µM): 1.09
relative viability (Veliparib + Foretinib; first compound 0.06325 µM): 0.975
relative viability (Veliparib + Foretinib; first compound 0.2 µM): 1.03
relative viability (Veliparib + Foretinib; first compound 0.6325 µM): 0.92
relative viability (Veliparib + Foretinib; first compound 2 µM): 0.969
relative viability (Veliparib + Trametinib; first compound 0.02 µM): 0.309
relative viability (Veliparib + Trametinib; first compound 0.06325 µM): 0.289
relative viability (Veliparib + Trametinib; first compound 0.2 µM): 0.302
relative viability (Veliparib + Trametinib; first compound 0.6325 µM): 0.292
relative viability (Veliparib + Trametinib; first compound 2 µM): 0.291

CAL-12T
relative viability ([1]; first compound 0.08 µM): 0.426
relative viability ([1]; first compound 0.253 µM): 0.613
relative viability ([1]; first compound 0.8 µM): 0.478
relative viability ([1]; first compound 2.53 µM): 0.414
relative viability ([1]; first compound 8 µM): 0.408
relative viability ([2]; first compound 0.08 µM): 0.987
relative viability ([2]; first compound 0.8 µM): 1.06
relative viability ([2]; first compound 2.53 µM): 1.06
relative viability ([2]; first compound 8 µM): 0.862
relative viability (Veliparib + Foretinib; first compound 0.02 µM): 1.2
relative viability (Veliparib + Foretinib; first compound 0.06325 µM): 1.04
relative viability (Veliparib + Foretinib; first compound 0.2 µM): 1.15
relative viability (Veliparib + Foretinib; first compound 0.6325 µM): 1.09
relative viability (Veliparib + Foretinib; first compound 2 µM): 1.29
relative viability (Veliparib + Trametinib; first compound 0.02 µM): 0.42
relative viability (Veliparib + Trametinib; first compound 0.06325 µM): 0.378
relative viability (Veliparib + Trametinib; first compound 0.2 µM): 0.328
relative viability (Veliparib + Trametinib; first compound 0.6325 µM): 0.256
relative viability (Veliparib + Trametinib; first compound 2 µM): 0.374

NCI-H1437
relative viability ([1]; first compound 0.08 µM): 0.332
relative viability ([1]; first compound 0.253 µM): 0.339
relative viability ([1]; first compound 0.8 µM): 0.469
relative viability ([1]; first compound 2.53 µM): 0.466
relative viability ([1]; first compound 8 µM): 0.395
relative viability ([2]; first compound 0.08 µM): 0.38
relative viability ([2]; first compound 0.253 µM): 0.483
relative viability ([2]; first compound 0.8 µM): 0.527
relative viability ([2]; first compound 2.53 µM): 0.581
relative viability ([2]; first compound 8 µM): 0.393
relative viability (Veliparib + Foretinib; first compound 0.02 µM): 1.12
relative viability (Veliparib + Foretinib; first compound 0.06325 µM): 1.17
relative viability (Veliparib + Foretinib; first compound 0.2 µM): 1.2
relative viability (Veliparib + Foretinib; first compound 0.6325 µM): 1.24
relative viability (Veliparib + Foretinib; first compound 2 µM): 1.23
relative viability (Veliparib + Trametinib; first compound 0.02 µM): 0.502
relative viability (Veliparib + Trametinib; first compound 0.06325 µM): 0.527
relative viability (Veliparib + Trametinib; first compound 0.2 µM): 0.514
relative viability (Veliparib + Trametinib; first compound 0.6325 µM): 0.502
relative viability (Veliparib + Trametinib; first compound 2 µM): 0.497

UMC-11
relative viability ([1]; first compound 0.253 µM): 0.454
relative viability ([1]; first compound 0.8 µM): 0.422
relative viability ([1]; first compound 2.53 µM): 0.471
relative viability ([1]; first compound 8 µM): 0.44
relative viability ([2]; first compound 0.08 µM): 0.665
relative viability ([2]; first compound 0.253 µM): 0.668
relative viability ([2]; first compound 0.8 µM): 0.809
relative viability ([2]; first compound 2.53 µM): 0.67
relative viability ([2]; first compound 8 µM): 0.634
relative viability (Veliparib + Foretinib; first compound 0.02 µM): 1.29
relative viability (Veliparib + Foretinib; first compound 0.06325 µM): 0.959
relative viability (Veliparib + Foretinib; first compound 0.2 µM): 0.998
relative viability (Veliparib + Foretinib; first compound 0.6325 µM): 0.948
relative viability (Veliparib + Foretinib; first compound 2 µM): 1.02
relative viability (Veliparib + Trametinib; first compound 0.02 µM): 0.7
relative viability (Veliparib + Trametinib; first compound 0.06325 µM): 0.759
relative viability (Veliparib + Trametinib; first compound 0.2 µM): 0.707
relative viability (Veliparib + Trametinib; first compound 0.6325 µM): 0.682
relative viability (Veliparib + Trametinib; first compound 2 µM): 0.635
